The source of these data is ChEMBL document CHEMBL1201862, “PubChem BioAssay data set” (2004).

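Cultured in 96-well plates, cells were exposed to test compound for 48 hours across five concentrations. At the GI50, growth is halved.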 Active and inactive are the calls of the source. Rule as the data show it: active = GI50 up to about 1.1 µM and inactive = higher. A value given as a limit tells only on which side of the number the result lay.

Test systems include 786-0; A549; HCC 2998; HL-60; HOP-62; HOP-92; K562; LOX IMVI; M14; Malme-3M; NCI-H460; NCI-H522; RPMI-8226; SF-295; SK-MEL-28; SK-MEL-2; UACC-257; UO-31; OVCAR-3.
Test in all cases: NCI tumour cell line growth inhibition, 48 h

On to `C[C@@H]1[C@H](c2ccccc2)O[B-]2(c3ccc(Br)cc3)OC(=O)C[N+]12C` (stereo partly specified), for which the GI50 was > 100 µM (inactive) in the assay with 786-0; > 100 µM (inactive) in the assay on A549; > 100 µM (inactive) in the assay on HCC 2998; 24.9 µM (inactive) with HL-60; > 100 µM (inactive) with HOP-62; 44.3 µM (inactive) in the assay with HOP-92. The GI50 in the assay on K562 is 98.9 µM (inactive); with LOX IMVI, > 100 µM (inactive); in the assay with M14 it was > 100 µM (inactive); with Malme-3M, > 100 µM (inactive); with NCI-H460, > 100 µM (inactive); in the assay with NCI-H522 it was > 100 µM (inactive). Besides, the GI50 in the assay with RPMI-8226 was > 100 µM (inactive); with SF-295, > 100 µM (inactive); in the assay on SK-MEL-28, 0.1 µM (active); in the assay with SK-MEL-2 it was > 100 µM (inactive); in the assay on UACC-257, > 100 µM (inactive); in the assay on UO-31, 66.5 µM (inactive).

In the case of `CC(C)COC(=O)N1N=NC2C3OC(CC3=O)C21` (stereo unspecified), the GI50 in the assay on 786-0, in the assay with HCC 2998, with HL-60, in the assay with HOP-62, in the assay with HOP-92 and in the assay on K562 was > 100 µM (inactive) in each case. The GI50 in the assay on LOX IMVI, in the assay on M14, in the assay with Malme-3M, in the assay with NCI-H460, with NCI-H522 and in the assay with OVCAR-3 was > 100 µM (inactive) in each case. Also, the GI50 in the assay on RPMI-8226, in the assay on SF-295, in the assay with SK-MEL-28, in the assay with SK-MEL-2, in the assay with UACC-257 and in the assay on UO-31 was > 100 µM (inactive) each time.

For the molecule `O=C(NC12CC3CC(CC(C3)C1)C2)C(=O)c1c[nH]c2ccc([N+](=O)[O-])cc12`, the GI50 with 786-0 is 16.9 µM (inactive); in the assay with A549, 11.3 µM (inactive); in the assay with HCC 2998 it was > 100 µM (inactive); in the assay with HL-60 it was > 35.6 µM (inactive); in the assay with HOP-62, 17.1 µM (inactive); in the assay on HOP-92 it was 30.3 µM (inactive). Moreover, the GI50 with K562 is 49 µM (inactive); with LOX IMVI, 15.3 µM (inactive); in the assay on M14, 34 µM (inactive); in the assay on Malme-3M, 24.7 µM (inactive); in the assay with NCI-H460, 13.5 µM (inactive); with NCI-H522, 25.2 µM (inactive). In addition, the GI50 is 24.8 µM (inactive) with OVCAR-3; > 83 µM (inactive) with RPMI-8226; 6.18 µM (inactive) with SF-295; 85.1 µM (inactive) with SK-MEL-28; > 59.8 µM (inactive) in the assay with SK-MEL-2; 85.5 µM (inactive) in the assay with UACC-257. Further, in the assay with UO-31, the GI50 was > 47.2 µM (inactive).

As for `CCCCC(C(=O)CCC(=O)Nc1ccc(Cl)c(Cl)c1)C(=O)C(C)C` (stereo unspecified), the GI50 with 786-0, in the assay with A549, with HCC 2998, in the assay with HL-60, with HOP-62 and in the assay on HOP-92 was > 100 µM (inactive) throughout. In addition, the GI50 in the assay with K562 was 40.9 µM (inactive); in the assay with LOX IMVI it was 63.2 µM (inactive); with M14 it was 82.8 µM (inactive); in the assay on Malme-3M, > 100 µM (inactive); in the assay with NCI-H460 it was > 100 µM (inactive); with NCI-H522, > 100 µM (inactive). In addition, the GI50 with OVCAR-3 was > 100 µM (inactive); in the assay with RPMI-8226, > 100 µM (inactive); in the assay on SF-295, 85.3 µM (inactive); in the assay on SK-MEL-28, > 100 µM (inactive); in the assay on SK-MEL-2, 95.5 µM (inactive); in the assay on UACC-257 it was > 100 µM (inactive). Also, the GI50 with UO-31 is > 100 µM (inactive).

Turning to `O=C(Nc1nnn[nH]1)c1nc(O)cc(-c2ccccc2)n1`, the GI50 in the assay on 786-0, in the assay on A549, in the assay with HCC 2998, in the assay on HL-60, in the assay on HOP-62 and with HOP-92 was > 100 µM (inactive) in each case. Also, the GI50 in the assay on K562, in the assay with M14, with Malme-3M, in the assay on NCI-H460, in the assay with NCI-H522 and in the assay on OVCAR-3 was > 100 µM (inactive) in each case. Also, the GI50 with RPMI-8226, with SF-295, in the assay on SK-MEL-28, with SK-MEL-2, in the assay with UACC-257 and in the assay with UO-31 was > 100 µM (inactive) in each case.

As for `O=[N+]([O-])c1nccn1COCCBr`, the GI50 in the assay on 786-0, with A549, in the assay on HL-60, in the assay with HOP-62, in the assay with HOP-92 and with K562 was > 100 µM (inactive) each time. The GI50 in the assay on LOX IMVI, in the assay on M14, in the assay on Malme-3M, with NCI-H460, in the assay with NCI-H522 and in the assay on OVCAR-3 was > 100 µM (inactive) in each case. Also, the GI50 in the assay with RPMI-8226, in the assay on SF-295, with SK-MEL-28, in the assay on SK-MEL-2, in the assay on UACC-257 and in the assay on UO-31 was > 100 µM (inactive) each time.

For `O=C(O)CNC(=O)c1c2ccccc2nc2ccccc12`, the GI50 with 786-0, with A549, in the assay with HCC 2998, in the assay on HOP-62, in the assay on HOP-92 and with K562 was > 100 µM (inactive) each time. Also, the GI50 in the assay on LOX IMVI, in the assay on M14, with Malme-3M, in the assay with NCI-H460, in the assay with NCI-H522 and with OVCAR-3 was > 100 µM (inactive) throughout. Moreover, the GI50 in the assay with RPMI-8226, with SF-295, in the assay on SK-MEL-28, in the assay on SK-MEL-2, in the assay with UACC-257 and in the assay with UO-31 was > 100 µM (inactive) in each case.

`COc1cc(-c2cccs2)sc1-c1cccs1`: the GI50 with 786-0 was 39.3 µM (inactive); in the assay with A549 it was 33.3 µM (inactive); in the assay on HCC 2998, 26.7 µM (inactive); in the assay on HL-60, 14.3 µM (inactive); in the assay on HOP-92, 24.5 µM (inactive); in the assay with K562, 13.6 µM (inactive). Besides, the GI50 is 46.2 µM (inactive) with LOX IMVI; 35.3 µM (inactive) in the assay with M14; 39 µM (inactive) in the assay with Malme-3M; 26 µM (inactive) with NCI-H460; 31 µM (inactive) in the assay on NCI-H522; 63.8 µM (inactive) with OVCAR-3. Moreover, the GI50 in the assay on RPMI-8226 is 52.4 µM (inactive); in the assay with SF-295 it was 23.3 µM (inactive); in the assay on SK-MEL-28, 34 µM (inactive); with SK-MEL-2 it was 31.5 µM (inactive); with UACC-257, 39.7 µM (inactive); in the assay on UO-31 it was 38.2 µM (inactive).

On to `CC(C)c1ccccc1NC(=O)/C(Cl)=C1/Sc2ccccc2NC1=O`, for which the GI50 in the assay on 786-0 is 30.5 µM (inactive); with A549 it was 32.3 µM (inactive); with HCC 2998 it was 23.6 µM (inactive); with HL-60, 21.2 µM (inactive); with HOP-62 it was 30.8 µM (inactive); in the assay on HOP-92, 11.6 µM (inactive). The GI50 is 14.8 µM (inactive) in the assay with K562; 29.2 µM (inactive) in the assay on LOX IMVI; 22.4 µM (inactive) in the assay on M14; 20 µM (inactive) in the assay with Malme-3M; 34.5 µM (inactive) in the assay on NCI-H460; 17.9 µM (inactive) in the assay with NCI-H522. Moreover, the GI50 in the assay on RPMI-8226 was 20.9 µM (inactive); in the assay on SK-MEL-28, 33.4 µM (inactive); in the assay on SK-MEL-2 it was 15.7 µM (inactive); in the assay with UO-31 it was 32.8 µM (inactive).

Turning to `CCOC(=O)C1S/C(=N/c2ccc(Cl)cc2C)N=C1C` (stereo unspecified), the GI50 is 15.9 µM (inactive) in the assay with 786-0; 21.4 µM (inactive) with A549; 20.7 µM (inactive) in the assay on HCC 2998; 4.34 µM (inactive) in the assay on HL-60; 24.8 µM (inactive) with HOP-62; 15.5 µM (inactive) in the assay on HOP-92. Besides, the GI50 in the assay with K562 was 17.7 µM (inactive); in the assay on LOX IMVI it was 15 µM (inactive); in the assay with M14, 19.5 µM (inactive); in the assay with Malme-3M it was 20.2 µM (inactive); with NCI-H460, 22 µM (inactive); in the assay with NCI-H522, 13.3 µM (inactive). Moreover, the GI50 is 20.8 µM (inactive) in the assay on OVCAR-3; 23.8 µM (inactive) in the assay with SF-295; 25.2 µM (inactive) with SK-MEL-28; 16.4 µM (inactive) in the assay on SK-MEL-2; 22.2 µM (inactive) in the assay on UACC-257; 17.3 µM (inactive) with UO-31.

In the case of `CC(=O)C1C(=O)C(=O)N(c2ccccc2)C1=O` (stereo unspecified), the GI50 in the assay on 786-0, in the assay with A549, in the assay with HCC 2998, in the assay with HL-60, in the assay on HOP-62 and in the assay on HOP-92 was > 100 µM (inactive) each time. The GI50 in the assay with LOX IMVI, with M14, in the assay on NCI-H460, in the assay with NCI-H522, in the assay on OVCAR-3 and in the assay on SF-295 was > 100 µM (inactive) each time. Moreover, the GI50 in the assay on SK-MEL-28, in the assay with SK-MEL-2, with UACC-257 and in the assay on UO-31 was > 100 µM (inactive) each time.
